# Test results from ChEMBL document CHEMBL1154426, “In vitro susceptibilities of Mycoplasma putrefaciens field isolates” (2007).
# Experiments:
# Type in all cases: functional
# Mycoplasma putrefaciens [1] = experiment: Antimicrobial activity against Mycoplasma putrefaciens Jordanian isolates after 24 hrs by twofold serial dilution method
# Mycoplasma putrefaciens [2] = experiment: Antimicrobial activity against Mycoplasma putrefaciens French isolates after 24 hrs by twofold serial dilution method
# Mycoplasma putrefaciens [3] = experiment: Antimicrobial activity against Mycoplasma putrefaciens KS1 after 24 hrs by twofold serial dilution method
Compound,MIC50 (Mycoplasma putrefaciens [1]) [µg/mL],MIC90 (Mycoplasma putrefaciens [1]) [µg/mL],MIC50 (Mycoplasma putrefaciens [2]) [µg/mL],MIC90 (Mycoplasma putrefaciens [2]) [µg/mL],"MIC (Mycoplasma putrefaciens [3]; KS1, 24 h) [µg/mL]",MIC (Mycoplasma putrefaciens [3]) [µg/mL]
O=C(N[C@H](CO)[C@H](O)c1ccc([N+](=O)[O-])cc1)C(Cl)Cl [CHLORAMPHENICOL],2,4,4,4,4,–
CN(C)[C@@H]1C(O)=C(C(N)=O)C(=O)[C@@]2(O)C(O)=C3C(=O)c4c(O)ccc(Cl)c4[C@@](C)(O)[C@H]3C[C@@H]12 [CHLORTETRACYCLINE],4,4,8,16,4,–
O=C(O)c1cn(C2CC2)c2cc(N3CCNCC3)c(F)cc2c1=O [CIPROFLOXACIN],0.25,0.25,0.25,0.5,0.25,–
C[C@H]1c2cccc(O)c2C(=O)C2=C(O)[C@]3(O)C(=O)C(C(N)=O)=C(O)[C@@H](N(C)C)[C@@H]3[C@@H](O)[C@@H]21.O [DOXYCYCLINE],0.125,0.25,0.25,2,0.03,–
CCN1CCN(c2cc3c(cc2F)c(=O)c(C(=O)O)cn3C2CC2)CC1 [ENROFLOXACIN],0.125,0.125,0.125,0.25,0.125,–
CC[C@H]1OC(=O)[C@H](C)[C@@H](O[C@H]2C[C@@](C)(OC)[C@@H](O)[C@H](C)O2)[C@H](C)[C@@H](O[C@@H]2O[C@H](C)C[C@H](N(C)C)[C@H]2O)[C@](C)(O)C[C@@H](C)C(=O)[C@H](C)[C@@H](O)[C@]1(C)O [ERYTHROMYCIN],0.03,0.03,0.03,0.125,0.03,–
CCC[C@@H]1C[C@@H](C(=O)N[C@@H]([C@H]2O[C@H](SC)[C@H](O)[C@@H](O)[C@H]2O)[C@@H](C)O)N(C)C1 [LINCOMYCIN],0.5,1,1,2,1,–
CCn1cc(C(=O)O)c(=O)c2ccc(C)nc21 [NALIDIXIC ACID],> 256,> 256,> 256,> 256,512,–
CCn1cc(C(=O)O)c(=O)c2cc(F)c(N3CCNCC3)cc21 [NORFLOXACIN],2,2,2,4,2,–
CN(C)[C@@H]1C(O)=C(C(N)=O)C(=O)[C@@]2(O)C(O)=C3C(=O)c4c(O)cccc4[C@@](C)(O)[C@H]3[C@H](O)[C@@H]12 [OXYTETRACYCLINE],0.5,0.5,1,4,0.5,–
CN[C@@H]1[C@H](O)[C@H](NC)[C@H]2O[C@@]3(O)C(=O)C[C@@H](C)O[C@H]3O[C@@H]2[C@H]1O [SPECTINOMYCIN],16,32,16,16,32,–
CN[C@@H]1[C@H](O[C@H]2[C@H](O[C@H]3[C@H](O)[C@@H](O)[C@H](N=C(N)N)[C@@H](O)[C@@H]3N=C(N)N)O[C@@H](C)[C@]2(O)C=O)O[C@@H](CO)[C@H](O)[C@H]1O [STREPTOMYCIN],32,32,32,64,64,–
CC[C@H]1OC(=O)C[C@@H](O)[C@H](C)[C@@H](O[C@@H]2O[C@H](C)[C@@H](O[C@H]3C[C@@](C)(O)[C@@H](O)[C@H](C)O3)[C@H](N(C)C)[C@H]2O)[C@@H](CC=O)C[C@@H](C)C(=O)/C=C/C(C)=C/[C@@H]1CO[C@@H]1O[C@H](C)[C@@H](O)[C@@H](OC)[C@H]1OC [TYLOSIN],0.015,0.015,0.03,0.06,0.06,–
GENTAMICIN,32,32,64,64,–,64
SPIRAMYCIN,0.125,0.25,0.25,0.5,–,0.25
